The structures appear in SMILES notation.

The data set relates to embryonic stem cells (D3) and 3T3 fibroblasts. In words: mouse Embryonic Stem Cell Test (mEST). The class given is cell-based. The conditions noted are these: <0.5 negative, >0.6 positive, 0.5-0.6 borderline. From the text:
The in vitro mouse Embryonic Stem Cell Test (mEST) assay is an implemented routine assay at Roche. The original EST was developed by Horst Spielmann and his group in 1997 as an in vitro model for the screening of embryotoxicity, based on a blastocyst-derived permanent embryonic mouse ESC (mESC) D3 cell line derived from mouse 129 strains and was validated by European Centre for the Validation of Alternative Methods (ECVAM).
We further optimized and modified the approach allowing for the application of the assay to pharmaceutical compounds.
The cytotoxicity (inhibition of growth) of 3T3 fibroblasts, which represents differentiated cells and the cytotoxicity of undifferentiated embryonic stem cells (D3) after 10 days of substance treatment serve as two assay endpoints. This is determined by the use of dehydrogenase enzymes, which are present in the intact mitochondria of living cells to convert yellow soluble substrate 3-(4,5-dimethythiazol-2-yl)-2,5-diphenyl tetrazolium bromide (MTT) into a dark blue insoluble formazan product, which gets sequestered within the cells and is detected quantitatively using an absorbance reader (570 nm) after solubilizing the cell membrane.
The third endpoint is the inhibition of differentiation of ES cells into myocards which are cardiac muscle cells after 10 days of treatment. The beating of this cells is evaluated by microscopy.
• 1) Cell passage with trypsin 0.05% EDTA for D3 cells. • 2) Assembly of the cell suspension: dilute cells to 2.5×10^4/mL with 18 ml media (for each test) in 50 mL Falcon tubes. • 3) Prepare the petri dishes (PD): add 5-10 mL sterile Dulbecco's PBS (Gibco) into each dish bottom, distribute over the whole dish. • 4) Dilution series of test compound in Eppendorf tubes: add 5 μL of compound (1:400 dilution) and 5 μL control solution (DMSO) to 2 mL cell suspension, vortex. • 5) Preparation of hanging drops in petridishes: vortex tube, aspirate suspension with automatic pipette and multi-dispense 20 μL drops onto the lid of the petri dish, add 2 mL in total in a concentric circle of drops (˜100 drops); quickly but smoothly turn the cover and put on PD; incubate for 3 days at 37° C./5% CO2.
• 1) Dilution series of compound in 14 mL PP tubes • 6 tubes for the concentrations; fill with 5 mL assay media • 1 tube for DMSO (solvent control) fill with 5 mL assay media • 2) Dilution series of compound in Eppendorf tubes • Add 12.5 μL of compound (1:400 dilution) and 12.5 μL control solution, vortex • 3) Transfer of embryoid bodies in a bacterial Petri dish • Carefully turn PD lid, check the drops for fungus contamination • Rinse several times the drops down with 5 mL of the prepared solution • Transfer in a bacterial petri dish Incubate for 3 days at 37° C./5% CO2 […]
Take `CO[C@@H]1CN(c2ccc3c(c2)[C@@H](C)CN(c2ccnc4c2cnn4C)C3)C[C@H]1N` [Example 20, (3R,4R)-4-methoxy-1-[(4R)-4-methyl-2-(1-methylpyrazolo[3,4-b]pyridin-4-yl)-3,4-dihydro-1H-isoquinolin-6-yl]pyrrolidin-3-amine]: the “Predictive scores D12_3” value is 0.49.

With `C[C@H]1CN(c2ccnc3c2cnn3C)Cc2ccc(OC[C@@H]3CNCCN3)cc21` [Example 19, (4R)-4-methyl-2-(1-methylpyrazolo[3,4-b]pyridin-4-yl)-6-[[(2S)-piperazin-2-yl]methoxy]-3,4-dihydro-1H-isoquinoline], the “Predictive scores D12_3” value is recorded as 0.05.

In the case of `CO[C@@H]1CN(c2ccc3c(n2)[C@@H](C)CN(c2cc(C)nc4c2cnn4C)C3)C[C@H]1N` [Example 63, (3R,4R)-4-methoxy-1-[(8S)-6-(1,6-dimethylpyrazolo[3,4-b]pyridin-4-yl)-8-methyl-7,8-dihydro-5H-1,6-naphthyridin-2-yl]pyrrolidin-3-amine], the “Predictive scores D12_3” value is given as 0.43.

`C[C@H]1CN(c2ccnc3c2cnn3C)Cc2ccc(OC[C@H]3CNCCN3)cc21` [Example 18, (4R)-4-methyl-2-(1-methylpyrazolo[3,4-b]pyridin-4-yl)-6-[[(2R)-piperazin-2-yl]methoxy]-3,4-dihydro-1H-isoquinoline]: the “Predictive scores D12_3” value is 0.11.

The values are drawn from patent US20240317735A1, “HYDROISOQUINOLINE OR HYDRONAPHTHYRIDINE COMPOUNDS FOR THE TREATMENT OF AUTOIMMUNE DISEASE” (Hoffmann-La Roche Inc., priority 2020, published 2024).
